We go through 1 molecule from patent publication US8815210B2, “Diagnostic composition comprising plasma cations having superior safety profile” (GE Healthcare AS, priority 2009, dated 2014).

The subject of one series is normal pigs. As to the kind of experiment: Haemodynamic effects after LAD injection in normal pigs without balloon occlusion (Example 2b). It counts as in vivo, pig. Particulars: 25 ml into LAD, 45 to 70 seconds after injection. The source says:
FIG. 5 depicts the effect of Compound I (with and without added Ca) and Visipaque on LVSP 45 to 70 seconds from the start of injection to the LAD of normal pigs normalised to Ringer Lacate (LR) injection.
The haemodynamic effects of compositions of Compound I with and without added CaCl2 were compared to Visipaque and Iopamidol following selective administration to the LAD in normal pigs without balloon occlusion. The effects of each contrast media were normalised to any effects seen with an equivalent injection of Ringer Lactate solution, which acted as a volume and electrolyte—“ratio” control. There were a total of 12 pigs in this study, and each pig received a single CM injected 3 times at volumes of 10 ml (4 ml/sec), 20 ml (1 ml/sec) and 25 ml (0.4 ml/sec) (total of 9 CM injections in each pig). Each CM was either preceded or followed by a control injection of Ringer Lactate, and the order of each injection (volume) was randomised in each pig.

A further series relates to porcine heart. As to the kind of experiment: Intravenous and intra-arterial cardiovascular safety, acute porcine model (Example 3). Type of series: in vivo, pig. The procedure:
The intravenous (i.v) and intra-arterial (i.a.) safety of a composition of Compound I was shown in a separate study (ref. B145095). In this study the cardiovascular effects of Compound I in a composition with 45 mM NaCl and 0.5 mM CaCl2 was assessed at three dose levels in vivo in an acute porcine model.
The composition was administered either intra-arterially or intravenously into groups of three animals at one of three dose levels (1-fold, 2-fold or 3-fold the standard volume of 2 ml/kg). Each animal also received an equivalent volume of Ringer-Lactate solution as a volume control. CV effects: heart rate (HR), pulse oximetry, electrocardiogram (ECG), aortic pressure (systolic, diastolic and mean), left ventricular end diastolic pressure (LVEDP) were assessed. Ultrasound/echocardiography to assess stroke volume, ejection fraction and cardiac contractility were also evaluated.

Series [1] can be described thus: Viscosity, calibrated U-tube technique. Type of series: physicochemical. The following applies: 320 mgI/ml, 20° C. The procedure:
The viscosity of compound I was determined at 20° C. and 37° C. at three different concentrations. The viscosity at 320 mgI/ml and 20° C. is around 24 mPas.
The viscosity of Compound I was determined at two different temperatures, 20° C. and 37° C. and three different concentrations, 246, 295 and 313 mgI/ml. The test solutions were isotonic through adjustment of the osmolality with NaCl and had been sterilized by autoclavation. The density of the solutions was determined using a Density meter, DMA58 (Anton Paar). A calibrated U-tube technique was used, where the time of fall was used as a measure of dynamic viscosity. The viscosity of compound I was determined at 20° C. and 37° C. at three different concentrations. In comparison with Visipaque, the viscosity at 320 mgI/ml and 20° C. is similar, around 24 mPas.

A further series deals with Sca:SD rats. The following applies: rat, in vivo. The procedure:
Young adult male Sca:SD rats (Scanbur, Sweden), weighing 200±20 g, were injected intravenously at a rate of 1.2 ml/min with either Compound I (340 mgI/mL, 286 mosmol/kg), iodixanol (321 mgI/mL, 284 mosmol/kg), osmotic control mannitol (283 mosmol/kg), or saline (290 mosmol/kg), administered as 2 separate doses 4 hours apart. For the interim kill animals (day 2 post-treatment), Compound I and iodixanol were dosed at 8, 10 and 12.8 gI/kg, corresponding to total dose volumes of 23.7, 29.7 and 38.0 ml/kg, and 25, 31.3 and 40 ml/kg, respectively, whereas for mannitol and saline, the dose volume was 40 ml/kg. For the 7 day terminal kill animals, there were 4 dose groups; Compound I and iodixanol (12.8 gI/kg), and saline and mannitol (40 mL/kg). In all cases, each group included 8 animals.
The following evaluations were made during the study; clinical signs, body weights and blood for haematology and clinical chemistry on days 0, 2 and 7, and gross observations, organ weight and histomorphological examination of tissues from the animals killed by excess intravenous thiopental injection on days 2 or 7. The day of dosing was defined as Day 0. Clinical biochemistry parameters (Na, K, Cl, PO4, Ca, AST, ALT, ALP, cholesterol, creatinine, CK, GGT, TG (triglyceride), total bilirubin, total protein, urea, albumin, LDH and GLDH were measured on a Beckman Synchron CX5 at 37° C. Haematology parameters (WBC, differential WBC, RBC, WBC/RBC ratio, Hgb, PLT, HCT, MCH, MCHC, MCV, MPV and RDW) were analyzed with an Abbott Cell-Dyn 3500 CS automated haematology analyzer. Kidneys from saline control and the 12.8 gI/kg Compound I and iodixanol groups were immerse fixed in 10% neutral buffered formalin, processed into paraffin wax, sectioned at a nominal thickness of 5 μm, stained with haematoxylin and eosin and examined by light microscopy.
The data were analysed by parametric one-way ANOVA, followed by Dunnett's post procedure test, using the 2 days and 7 days saline groups for comparison with the 2 days and 7 days iodixanol and Compound I groups. The statistical analysis was applied on day −1 (baseline), day 2 and day 7.

The subject of series [2] is human serum albumin (HSA). Nature of the series: Binding to human serum albumin, equilibrium dialysis. It counts as in vitro ADME. Particulars: 25 hours, citrated human plasma. Here is the method: The binding of Compound I to human serum albumin (HSA) was determined using an equilibrium dialysis method. The binding of Compound I to human serum albumin was determined to be very low, 3.1±1.3%, confirming the negligible interaction of the substance with endogenous proteins.
The binding of Compound I to human serum albumin (HSA) was determined using an equilibrium dialysis method. A stock solution of Compound I (5.0 mg/ml in phosphate buffered saline (PBS)) was mixed with citrate:human plasma in a ratio of 1:9. Equilibration was carried out in a Diachem Dianorm Dialyser against an aqueous phosphate buffered saline using a Diachem 10.17 MW cutoff 10000 membrane and was carried out for 25 hours. Analysis of the solutions was performed using an ICP-AES instrument. In addition, spiked PBS solutions were also equilibrated against citrated human plasma solutions to ensure that the equilibrium had been obtained. The binding of Compound I to human serum albumin was determined to be very low, 3.1±1.3%, confirming the negligible interaction of the substance with endogenous proteins. As a reference, the binding of iodixanol to HSA was determined to 0.4±0.9%.
For orientation: In equilibrium dialysis free small molecules cross a membrane that holds back macromolecules.

As to `O=CN(CC(O)CN(C=O)c1c(I)c(C(=O)NCC(O)CO)c(I)c(C(=O)NCC(O)CO)c1I)c1c(I)c(C(=O)NCC(O)CO)c(I)c(C(=O)NCC(O)CO)c1I` (stereo not shown) [Compound I, 5-[formyl-[3-[formyl-[3,5-bis(2,3-dihydroxypropylcarbamoyl)-2,4,6-triiodophenyl]amino]-2-hydroxypropyl]amino]-N,N′-bis(2,3-dihydroxypropyl)-2,4,6-triiodobenzene-1,3-dicarboxamide], the “LVSP change normalised to Ringer Lactate” value in the series with normal pigs (composition with 45 mM NaCl and 0.5 mM CaCl2) was −0.3 mm Hg. Also, in the series on normal pigs (composition with 45 mM NaCl, no added CaCl2), the “LVSP change normalised to Ringer Lactate (mean)” value was −5.7 mm Hg. Moreover, in the series on porcine heart (entire dose range, i.v. or i.a.), the “effect on aortic pressure (systolic, diastolic and mean)” value was “little or no effect”. Further, in the series with porcine heart (i.a. or i.v. dosing), the QT interval result is given as “within the normal range”. The “myocardial performance, overall” value in the series with porcine heart (i.a. or i.v. route, up to 3-fold of 2 ml/kg) is on record as “no overall changes to myocardial performance”. For the same molecule, in the series on porcine heart (i.v. or i.a., 1- to 3-fold of 2 ml/kg), the “heart rate (HR)” value was “remained within normal ranges”. Moreover, the LVEDP entry in the series with porcine heart (increasing doses, i.v. or i.a.) is listed as “slight increases”. Further, in the series on porcine heart (pig, in vivo), the “end diastolic volume (EDV), echocardiography” value is recorded as “only a slight change” and the “rhythm disturbances (ECG)” value was “no Compound I-related rhythm disturbances”. Moreover, in the series with porcine heart (throughout dosing, i.v. or i.a., 1- to 3-fold of 2 ml/kg, composition with 45 mM NaCl and 0.5 mM CaCl2), the “oxygen saturation (pulse oximetry)” value was “approximately 98%”. Besides, in series [1], the viscosity result is listed as “around 24 mPas”. In the series on Sca:SD rats (male, Sca:SD, 2 day), the “Proximal Tubule Vacuolation, Left Kidney” value is on record as 3, 3, 3, 3. In addition, in the series with Sca:SD rats (male, Sca:SD, iv), the “duration of clinical signs” value was 2 to 3 h and the “onset of clinical signs after the first administration” value was in the range of 10 to 20 min. Besides, in the series on Sca:SD rats (iv), the adverse clinical signs result is “mild to moderate depression and uncoordinated movements and weakness/inactivity”. The “binding to human serum albumin (HSA)” value in series [2] came to 3.1±1.3%.
